Results from PMC10587081, “Biochemical and structural basis of mercuric reductase, GbsMerA, from Gelidibacter salicanalis PAMC21136” (Scientific Reports, 2023).
Each block holds one compound with its values, some of them ahead of it.

Assays:
GbsMerA = target: T1, GbsMerA (Gelidibacter salicanalis, UniProt A0A934NG65); test: X-ray crystal structure; assay type: binding
T1 construct: gene JEM65_00875; full length, 449 aa, pET32a(+) (BamHI/XhoI), N-terminal His6 tag and vector tag cleaved with enterokinase, E. coli BL21, SEC, homodimer with non-covalent FAD; no NmerA domain and no C-terminal Cys-Cys motif; primers encode N-terminus MKEYDV and C-terminus IPHML
T1 sequence (A0A934NG65 1-448): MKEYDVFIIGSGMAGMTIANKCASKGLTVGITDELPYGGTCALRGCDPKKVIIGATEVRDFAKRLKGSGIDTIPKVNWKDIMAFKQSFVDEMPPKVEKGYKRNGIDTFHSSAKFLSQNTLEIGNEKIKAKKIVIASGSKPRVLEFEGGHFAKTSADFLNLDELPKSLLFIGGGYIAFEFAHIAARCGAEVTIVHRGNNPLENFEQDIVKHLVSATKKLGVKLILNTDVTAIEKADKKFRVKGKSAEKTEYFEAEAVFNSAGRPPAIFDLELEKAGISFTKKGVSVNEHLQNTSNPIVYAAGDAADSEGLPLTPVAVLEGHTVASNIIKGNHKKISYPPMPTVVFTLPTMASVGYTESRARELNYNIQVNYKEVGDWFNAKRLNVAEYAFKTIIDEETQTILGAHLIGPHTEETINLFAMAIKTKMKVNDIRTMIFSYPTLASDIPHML

[1] = target: mercuric reductase GbsMerA from Gelidibacter salicanalis PAMC21136 (Gelidibacter salicanalis PAMC21136); test: crystal structure; sitting drop vapor diffusion at 22 °C; GbsMerA 35 mg/mL with 1.6 M sodium phosphate monobasic/0.4 M potassium phosphate dibasic, 0.1 M sodium phosphate dibasic/citric acid pH 4.2; homodimer in the asymmetric unit

Compound: Cc1cc2nc3c(=O)[nH]c(=O)nc-3n(C[C@H](O)[C@H](O)[C@H](O)COP(=O)(O)OP(=O)(O)OC[C@H]3O[C@@H](n4cnc5c(N)ncnc54)[C@H](O)[C@@H]3O)c2cc1C [FAD]
X-ray crystal structure (GbsMerA; 2.6 Å, non-covalently bound FAD in FAD-binding domain, crystallised at pH 4.2 (phosphate/citrate)): Non-covalently bound FAD is located in the central region of the FAD-binding domain

Compound: NC(=O)C1=CN([C@@H]2O[C@H](COP(=O)(O)OP(=O)(O)OC[C@H]3O[C@@H](n4cnc5c(N)ncnc54)[C@H](OP(=O)(O)O)[C@@H]3O)[C@@H](O)[C@H]2O)C=CC1 [NADPH]
X-ray crystal structure (GbsMerA; complex with FAD and NADPH, bicine/Trizma pH 8.5, re-face of the FAD isoalloxazine ring): Furthermore, we determined the GbsMerA–NADPH complex structure.

stoichiometry N [1]: 2
Compound: mercuric reductase GbsMerA from Gelidibacter salicanalis PAMC21136 (enzyme)
